Test results taken from PubChem BioAssay (NCI).
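GI50 = concentration required for 50% inhibition of growth. At the TGI there is no net growth.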

Assays:
Assay in all cases: NCI anticancer screen, dose series, 384-well format; in the data active = GI50 below about 0.43 µM; inactive = the rest
SK-MEL-5 melanoma = test system: SK-MEL-5 melanoma
SK-OV-3 ovarian = test system: SK-OV-3 ovarian
A549 NSCLC = test system: A549 NSCLC
HOP-62 NSCLC = test system: HOP-62 NSCLC
MDA-MB-468 breast = test system: MDA-MB-468 breast
NCI-H522 lung = test system: NCI-H522 lung
NCI-H322M lung = test system: NCI-H322M lung
K-562 leukemia = test system: K-562 leukemia
SF-539 CNS = test system: SF-539 CNS
UACC-257 melanoma = test system: UACC-257 melanoma
MDA-MB-435 melanoma = test system: MDA-MB-435 melanoma
ACHN renal = test system: ACHN renal
SR leukemia = test system: SR leukemia
KM12 colon = test system: KM12 colon
HT29 colon = test system: HT29 colon
HCT-15 colon = test system: HCT-15 colon
LOX IMVI melanoma = test system: LOX IMVI melanoma
SN12C renal = test system: SN12C renal
U251 glioblastoma = test system: U251 glioblastoma
T-47D breast = test system: T-47D breast
786-0 renal = test system: 786-0 renal
MALME-3M melanoma = test system: MALME-3M melanoma
IGROV1 ovarian = test system: IGROV1 ovarian
CAKI-1 renal = test system: CAKI-1 renal
SW-620 colon = test system: SW-620 colon
HCT-116 colon = test system: HCT-116 colon
A498 renal = test system: A498 renal
DU-145 prostate = test system: DU-145 prostate
TK-10 renal = test system: TK-10 renal
HL-60(TB) leukemia = test system: HL-60(TB) leukemia
HOP-92 NSCLC = test system: HOP-92 NSCLC
NCI-H23 lung = test system: NCI-H23 lung
OVCAR-4 ovarian = test system: OVCAR-4 ovarian
NCI-H460 NSCLC = test system: NCI-H460 NSCLC
RPMI-8226 leukemia = test system: RPMI-8226 leukemia
M14 melanoma = test system: M14 melanoma
MCF7 breast = test system: MCF7 breast
SK-MEL-2 melanoma = test system: SK-MEL-2 melanoma
NCI-H226 lung = test system: NCI-H226 lung
NCI/ADR-RES ovarian = test system: NCI/ADR-RES ovarian
COLO 205 colon = test system: COLO 205 colon
MOLT-4 leukemia = test system: MOLT-4 leukemia
SF-295 CNS = test system: SF-295 CNS
SF-268 CNS = test system: SF-268 CNS
MDA-MB-231 breast = test system: MDA-MB-231 breast
BT-549 breast = test system: BT-549 breast
CCRF-CEM leukemia = test system: CCRF-CEM leukemia
UO-31 renal = test system: UO-31 renal
OVCAR-8 ovarian = test system: OVCAR-8 ovarian
OVCAR-3 ovarian = test system: OVCAR-3 ovarian
SK-MEL-28 melanoma = test system: SK-MEL-28 melanoma
HCC-2998 colon = test system: HCC-2998 colon
RXF 393 renal = test system: RXF 393 renal
UACC-62 melanoma = test system: UACC-62 melanoma
PC-3 prostate = test system: PC-3 prostate
OVCAR-5 ovarian = test system: OVCAR-5 ovarian

CS[C@@]1(C(=O)Nc2ccc3[nH]nc(-c4ccc(OC(C)C)nc4)c3c2)CCN(CC(=O)N2CC=C(c3ccc(-c4ncn(C)n4)cc3)CC2)C1
47800 nM: TGI (SF-539 CNS)
215 nM: TGI (UACC-62 melanoma)
97.6 nM: TGI (UACC-257 melanoma)
active: GI50 (SK-MEL-5 melanoma) 58.9 nM | GI50 (A549 NSCLC) 302 nM | GI50 (UACC-257 melanoma) 16.7 nM | GI50 (MDA-MB-435 melanoma) 96.3 nM | GI50 (SR leukemia) 375 nM | GI50 (KM12 colon) 297 nM | GI50 (HT29 colon) 43.1 nM | GI50 (LOX IMVI melanoma) 90.4 nM | GI50 (CAKI-1 renal) 273 nM | GI50 (SW-620 colon) 112 nM | GI50 (HCT-116 colon) 122 nM | GI50 (HL-60(TB) leukemia) 43.7 nM | GI50 (HOP-92 NSCLC) 189 nM | GI50 (NCI-H23 lung) 17.1 nM | GI50 (M14 melanoma) 12.5 nM | GI50 (SK-MEL-2 melanoma) 38.6 nM | GI50 (COLO 205 colon) 20 nM | GI50 (MDA-MB-231 breast) 373 nM | GI50 (HCC-2998 colon) 24.2 nM | GI50 (RXF 393 renal) 354 nM | GI50 (UACC-62 melanoma) 11 nM | GI50 (OVCAR-5 ovarian) 108 nM
1350 nM: TGI (HL-60(TB) leukemia)
194 nM: TGI (COLO 205 colon)
2390 nM: TGI (HCT-116 colon)
2440 nM: TGI (RPMI-8226 leukemia)
136 nM: TGI (NCI-H23 lung)
inactive: GI50 (SK-OV-3 ovarian) 17200 nM | GI50 (HOP-62 NSCLC) 476 nM | GI50 (MDA-MB-468 breast) 907 nM | GI50 (NCI-H522 lung) 7970 nM | GI50 (NCI-H322M lung) 438 nM | GI50 (K-562 leukemia) 819 nM | GI50 (SF-539 CNS) 1360 nM | GI50 (ACHN renal) 2250 nM | GI50 (HCT-15 colon) 2820 nM | GI50 (SN12C renal) 3370 nM | GI50 (U251 glioblastoma) 1530 nM | GI50 (T-47D breast) 5690 nM | GI50 ([…]-0 renal) 1770 nM | GI50 (IGROV1 ovarian) 514 nM | GI50 (A498 renal) 2520 nM | GI50 (DU-145 prostate) 61600 nM | GI50 (TK-10 renal) 561 nM | GI50 (OVCAR-4 ovarian) 1800 nM | GI50 (NCI-H460 NSCLC) 884 nM | GI50 (RPMI-8226 leukemia) 536 nM | GI50 (MCF7 breast) > 100000 nM | GI50 (NCI-H226 lung) 595 nM | GI50 (NCI/ADR-RES ovarian) 3770 nM | GI50 (MOLT-4 leukemia) 2560 nM | GI50 (SF-295 CNS) 12800 nM | GI50 (SF-268 CNS) > 100000 nM | GI50 (BT-549 breast) 2030 nM | GI50 (CCRF-CEM leukemia) 5120 nM | GI50 (UO-31 renal) 810 nM | GI50 (OVCAR-8 ovarian) 5370 nM | GI50 (OVCAR-3 ovarian) 5370 nM | GI50 (PC-3 prostate) 18800 nM
22.1 nM: TGI (MALME-3M melanoma)
4000 nM: TGI (SR leukemia)
207 nM: TGI (SK-MEL-2 melanoma)
222 nM: TGI (HCC-2998 colon)
34300 nM: TGI (MDA-MB-231 breast)
> 100000 nM: TGI (SK-OV-3 ovarian) | TGI (A549 NSCLC) | TGI (HOP-62 NSCLC) | TGI (NCI-H522 lung) | TGI (NCI-H322M lung) | TGI (K-562 leukemia) | TGI (MDA-MB-435 melanoma) | TGI (ACHN renal) | TGI (KM12 colon) | TGI (HT29 colon) | TGI (HCT-15 colon) | TGI (SN12C renal) | TGI (U251 glioblastoma) | TGI (T-47D breast) | TGI (786-0 renal) | TGI (IGROV1 ovarian) | TGI (CAKI-1 renal) | TGI (SW-620 colon) | TGI (A498 renal) | TGI (DU-145 prostate) | TGI (TK-10 renal) | TGI (OVCAR-4 ovarian) | TGI (NCI-H460 NSCLC) | TGI (MCF7 breast) | TGI (NCI/ADR-RES ovarian) | TGI (SF-295 CNS) | TGI (SF-268 CNS) | TGI (BT-549 breast) | TGI (CCRF-CEM leukemia) | TGI (UO-31 renal) | TGI (OVCAR-8 ovarian) | TGI (OVCAR-3 ovarian) | TGI (PC-3 prostate) | TGI (OVCAR-5 ovarian)
631 nM: TGI (HOP-92 NSCLC)
109 nM: TGI (M14 melanoma)
8650 nM: TGI (MOLT-4 leukemia)
1730 nM: TGI (SK-MEL-5 melanoma)
2200 nM: TGI (RXF 393 renal)
21600 nM: TGI (NCI-H226 lung)
267 nM: TGI (LOX IMVI melanoma)
58.3 nM: TGI (SK-MEL-28 melanoma)
7330 nM: TGI (MDA-MB-468 breast)
